Laboratory results: patent publication US5008294A, “Methods of treating tumors with compositions of catecholic butanes” (priority 1987, dated 1991)
Where two headings read alike, the source gives them in different places.

What was measured:
[1] = tested on: hepatic and colon carcinoma; experiment: Treatment of hepatic and colon carcinoma
Excerpt: The catecholic butanes, when applied parenterally or by injection, are excreted primarily through the liver and gut, and therefore exert preferential cytotoxicity to tumors located in those organs.

[2] = tested on: human breast adenocarcinoma, MX-1; experiment: Antineoplastic activity by topical application in athymic mice implanted intradermally with human breast adenocarcinoma MX-1 (Examples 7 and 8); format: in vivo; settings: 4.4 wt/wt% composition (Table 8)
Protocol: A composition containing 17.6% NDGA and 1% BHT in Pego 400 was tested for antineoplastic activity in athymic mice implanted with human breast adenocarcinoma, MX-1. Each animal was innoculated intradermally on the dorsum near the nape of the neck with 0.5 ml of a MX-1 homogenate. The animals were treated by topical application with the NDGA composition after day 23. Compositions containing 4.4 wt/wt% of meso and DL NDGA were tested for efficacy against the MX-1 tumor as in Example 7.

[3] = Stability against oxidation; format: physicochemical; settings: for example, by air; more stable at lower pH
Excerpt: The pH of the formulation is important in assuring stability of the catecholic butane as well as assuring that the formulation is physiologically acceptable to the patient. […] Such oxidation can result in discoloration of the formulation rendering it unacceptable for pharmaceutical use. […] Therefore, it is preferred that if the formulation is to be exposed to oxidizing conditions the pH be maintained below about 7.5 and preferably below about 6 in order to provide maximum stability for the catechol against oxidation. However, if oxidizing conditions can be avoided, for example, by storage of the formulation under an inert atmosphere such as nitrogen, a higher pH can be used. The pH of the formulation may be maintained through the use of toxicologically-acceptable buffers. Such buffers are well known in the pharmaceutical formulation art, and include hydrochloric acid buffer, acid phthalate buffer, phosphate buffer and citric acid/sodium citrate buffer.

[4] = tested on: several types of cancer cells; settings: Leiter et al.; cited from earlier work
[5] = tested on: tumor induction by DMBA; experiment: Anticarcinogenic activity in mice: NDGA+DMBA+TPA (Example 9); format: in vivo, SENCAR mice; settings: NDGA 3 mg topical, five consecutive days before DMBA and TPA
Protocol: (§1) Mice were exposed to dimethyl benzanthracene (DMBA), a classical tumor inducer, and to phorbol ester (TPA), a classical tumor promoter, after having been treated with NDGA.
(§2) Twenty mice were included in each of the following groups:
(§3) 1. Positive control group: DMBA+TPA. Female SENCAR mice 6-8 weeks old received a single topical application of […] of DMBA in 0.2 ml of acetone as the initiating agent. After one week, animals received twice weekly applications of tumor promoter TPA in 0.1 ml of acetone. Tumor formation was recorded weekly.
3. Anticarcinogenic activity: NDGA+DMBA+TPA. For five consecutive days animals received topical applications of NDGA (3 mg.) in 0.2 ml of acetone. 24 hours after the last treatment with NDGA, animals received DMBA and TPA exactly as in the positive control group.

[6] = tested on: CMT-12 cultured canine breast adenocarcinoma tumor cells; experiment: Clonogenic assay, antiproliferative effect on CMT-12 canine breast adenocarcinoma cells (Example 3); format: cell-based; settings: for No. Tumor Colonies Surviving: one hour at 37° C
Protocol: The antiproliferative effect of NDGA on CMT-12 cultured canine breast adenocarcinoma tumor cells was evaluated in clonogenic (cancer cell) assays.
(§4) Single cell suspensions of tumor cells harvested from culture flasks were exposed to the different compositions of NDGA for one hour at 37° C in liquid medium, and the cells were then washed twice, suspended in agarose medium and plated and the number of colony forming cells were determined. Results are expressed as percent inhibition of survival of clonogenic cells in treated cultures relative to nontreated control cultures. Significant anticancer activity was defined as>70% inhibition of the survival of colony-forming (tumor) cells.

[7] = Absorption of harmful sunlight (ultraviolet) radiation (Example 10); format: physicochemical
Protocol: The ability of NDGA to absorb harmful sunlight radiation was tested.

[8] = tested on: human cancer patients; settings: ingested; Smart et al. 1970; cited from earlier work
[9] = tested on: melanoma (B-16); experiment: Effect against melanoma (B-16); parameters: species or system mouse
[10] = tested on: human breast adenocarcinoma (MX-1); experiment: Effect against human breast adenocarcinoma (MX-1)
[11] = tested on: MX-1 (human breast adenocarcinoma) cells; experiment: In vivo antitumor effect on MX-1 cells implanted subcutaneously in nude mice, intratumoral injection (Example 6); settings: 0.1 ml injected directly into the tumor
Protocol: The in vivo antitumor effect of NDGA at various survival levels was determined using MX-1 (human breast adenocarcinoma) cells implanted subcutaneously in the flank of nude mice.
Tumors which reached the 25-100 mm^2 range were used for the experiment. 0.1 ml of the test compound in solution was injected directly into the tumor. The tumors were measured periodically to determine their weight until 60 days after the initial treatment or all mice had died.

[12] = tested on: lung squamous cell carcinoma (LX-1); experiment: Effect against lung squamous cell carcinoma (LX-1); parameters: species or system human
[13] = tested on: human lung tumor cell line LX-T; experiment: Antitumor effect against human lung tumor cell line LX-T (clonogenic assay / DNA flow cytometry with DAPI, Example 5); format: cell-based
Protocol: The antitumor effect of NDGA against the human lung tumor cell line LX-T was determined utilizing a clonogenic assay.
Serial dilutions of the test stock solutions were made in 15 ml of Ca^2+ --and Mg^2+ --free Hank's balanced salt solution (HBSS).
The LX-T cells were incubated in the presence of various amounts of NDGA, and the antitumor effect was determined by measuring the DNA […] of the LX-T nuclei using DNA flow cytometric analysis with a DNA-specific fluorochrome, 4', 6-diamidino-2-phenylindole (DAPI).

[14] = tested on: TPA tumor promotion; experiment: Antipromoting activity in mice: DMBA+NDGA+TPA (Example 9); format: in vivo, SENCAR mice; settings: NDGA 9 mg topical 30 minutes prior to each TPA application
Protocol: as §1, §2, §3
2. Antipromoting activity: DMBA+NDGA+TPA. 30 minutes prior to each application of TPA animals received topical application of NDGA (9 mg.) in 0.2 ml of acetone.

[15] = tested on: tumor cells; experiment: Enhancement of X-ray radiation effectiveness by topical application; settings: applied topically; without radiation toxicity to surrounding uninvolved skin
Excerpt: Consequently, the catecholic butanes may be useful in the treatment of cutaneous afflictions such as Kaposi's sarcoma.

[16] = tested on: MC-1 equine sarcoid-derived cell line; experiment: Inhibition of in vitro colony growth of MC-1 equine sarcoid-derived cell line (Example 4); format: cell-based; settings: for inhibition at 18 µM / inhibition at 27 µM / inhibition at 56 µM: Equus caballus, 336 h; for inhibition at 18 µM: 18 MicroMolar; for inhibition at 27 µM: 27 MicroMolar; for inhibition at 56 µM: 56 MicroMolar
Protocol: as §4
Compositions of NDGA were tested for their ability to inhibit in vitro growth of the MC-1 equine sarcoid-derived cell line, in experiments similar to those of Example 3.

[17] = Day 14, mean of 3 experiments, read-out: % Inhibition (Mean)
[18] = Day 14, read-out: Percentage Inhibition of Colony Growth, Experiment #1
[19] = Day 14, read-out: Percentage Inhibition of Colony Growth, Experiment #2
[20] = Day 14, read-out: Percentage Inhibition of Colony Growth, Experiment #3

Structure (SMILES): C[C@H](Cc1ccc(O)c(O)c1)[C@@H](C)Cc1ccc(O)c(O)c1 [NDGA, meso-1,4-bis (3,4-dihydroxyphenyl)-2,3-dimethylbutane]
- effectiveness in treating hepatic and colon carcinoma [1]: effective in treating hepatic and colon carcinoma
- Tumor Free 60 Days [2]: 4/5
- Tumor Recurrence [2]: 0
- susceptibility to oxidation [3]: susceptible to oxidation
- screening result [4]: negative results
- reduction of the potential of tumor induction by DMBA [5]: significantly reduce the potential of tumor induction by DMBA
- No. Tumor Colonies Surviving ([6]; 5 MicroMolar): 229.7 ± 10.9
- No. Tumor Colonies Surviving ([6]; 10 MicroMolar): 173.3 ± 23.3
- No. Tumor Colonies Surviving ([6]; 18 microMolar): 190 ± 16.3
- No. Tumor Colonies Surviving ([6]; 27 microMolar): 40 ± 16.3
- No. Tumor Colonies Surviving ([6]; 56 microMolar): 3.3 ± 4.7
- inhibition at 10 µM ([6]; Canis lupus familiaris, 10 MicroMolar, survival of clonogenic cells relative to nontreated control): 82.5%
- inhibition at 18 µM ([6]; Canis lupus familiaris, 18 microMolar, survival of clonogenic cells relative to nontreated control): 90.9%
- inhibition at 27 µM ([6]; Canis lupus familiaris, 27 microMolar, survival of clonogenic cells relative to nontreated control): 98.1%
- inhibition at 56 µM ([6]; Canis lupus familiaris, 56 microMolar, survival of clonogenic cells relative to nontreated control): 99.8%
- absorption of sunlight ([7]; result in words): strongly absorb sunlight at wavelengths known to produce sunburn
- strong absorption in the ultraviolet region ([7]; solution in methanol): 2816 Angstroms
- clinical outcome [8]: some positive results
- effectiveness against melanoma (B-16) [9]: particularly effective
- effectiveness against human breast adenocarcinoma (MX-1) [10]: particularly effective
- ED(50) [11]: 13.62 Micromoles
- ED(75) [11]: 25.66 Micromoles
- ED(90) [11]: 48.33 Micromoles
- ED(95) [11]: 74.34 Micromoles
- effectiveness against lung squamous cell carcinoma (LX-1) [12]: particularly effective
- EC50 ([13]; 50% cell growth inhibition, ± SD, read-out: Calculated ED(50)): 17.6 ± 4.07 µM
- IC75 ([13]; 75% cell growth inhibition, ± SD, read-out: Calculated ED(75)): 26.6 ± 12.1 µM
- IC90 ([13]; 90% cell growth inhibition, ± SD, read-out: Calculated ED(90)): 41.1 ± 28.1 µM
- IC95 ([13]; 95% cell growth inhibition, ± SD, read-out: Calculated ED(95)): 55.9 ± 46.8 µM
- EC50 ([13]; comparison with known anticancer drugs (Table 5B), read-out: ED(50) (the source's name)): 17.6 µM
- prevention of TPA tumor promotion [14]: nearly completely prevent TPA tumor promotion
- enhancement of X-ray radiation effectiveness [15]: enhance the X-ray radiation effectiveness of the tumor cells without radiation toxicity to surrounding uninvolved skin
- inhibition at 18 µM [16, 17]: 32.4%
- inhibition at 18 µM [16, 18]: 20.9%
- inhibition at 18 µM [16, 19]: 36.7%
- inhibition at 18 µM [16, 20]: 39.5%
- inhibition at 27 µM [16, 17]: 47%
- inhibition at 27 µM [16, 18]: 32.8%
- inhibition at 27 µM [16, 19]: 58.9%
- inhibition at 27 µM [16, 20]: 49.3%
- inhibition at 56 µM [16, 17]: 45.3%
- inhibition at 56 µM [16, 18]: 33%
- inhibition at 56 µM [16, 19]: 62.2%
- inhibition at 56 µM [16, 20]: 40.7%
- inhibiting colony growth over the duration of the assay ([16]; especially noticable at 27 and 56 microMolar NDGA): uniformly successful in inhibiting colony growth

Structure (SMILES): C[C@H](Cc1ccc(O)c(O)c1)[C@H](C)Cc1ccc(O)c(O)c1 (relative stereo) [dl-NDGA]
- Tumor Free 60 Days [2]: 4/5
- Tumor Recurrence [2]: 0

Structure (SMILES): O=c1[nH]cc(F)c(=O)[nH]1 [Composition 5-FU, reference compound]
- EC50 ([13]; read-out: ED(50)): 102 µM

Structure (SMILES): COc1cccc2c1C(=O)c1c(O)c3c(c(O)c1C2=O)C[C@@](O)(C(=O)CO)C[C@@H]3O[C@H]1C[C@H](N)[C@H](O)[C@H](C)O1 [Adriamycin, reference compound]
- EC50 ([13]; read-out: ED(50)): 25.6 µM

Structure (SMILES): CO[C@@]12[C@H](COC(N)=O)C3=C(C(=O)C(C)=C(N)C3=O)N1C[C@@H]1N[C@@H]12 [Mutamycin, reference compound]
- EC50 ([13]; read-out: ED(50)): 18.4 µM
